# From publication PMC3404088, “Development of a Small D-Enantiomeric Alzheimer’s Amyloid-β Binding Peptide Ligand for Future In Vivo Imaging Applications” (PLoS ONE, 2012)
# Square brackets hold non-standard residues; d marks the D form. Peptide text beside a SMILES is read from it. * marks the point of attachment. 5FAM = O=C1OC2(c3ccc(O)cc3Oc3cc(O)ccc32)c2ccc(C(=O)*)cc21
# Tests used:
# [1] = Analysis of ACI-80 stability: N-terminal glutamine vs pyroglutamate content by HPLC/ESI-MS; type: physicochemical; conditions: solid, freshly synthesized and untreated, HPLC/ESI-MS
# Method: In solution, N-terminal glutamine peptides such as D1 are prone to convert into N-terminal pyroglutamate species: Gln-SHYRHISPAQV → Pyr-SHYRHISPAQV. Therefore, the stability of solid ACI-80, solid ACI-80-Kϕ (ϕ: fluorescein isothiocyanate, covalently linked to the peptide via a lysine (K)) and [^127I]-ACI-80 in solution was investigated by JPT Peptide Technologies GmbH, Berlin, Germany using HPLC/ESI-MS whereby the relative content of N-terminal Gln peptide and N-terminal Pyr peptide was assessed.
# An important observation during initial compound stability characterization experiments was the partial conversion of the N-terminal glutamine of [^127I]-ACI-80 into pyro-glutamate. It is known that peptides with an N-terminal glutamine are prone to conversion of this residue into a pyroglutamate. Therefore, the composition of freshly synthesized and untreated ACI-80 and ACI-80-Kϕ as well as [^127I]-ACI-80 after iodination were investigated. […] It was observed that freshly synthesized ACI-80 and ACI-80-Kϕ contained only minor fractions of pyroglutamic acid while about one third of [^127I]-ACI-80 in solution already converted into N-terminal pyroglutamate species.
# [2] = molecular target: T1, Aβ1–42 monomers (Homo sapiens, UniProt P05067); experiment: ELISA, compound binding to Aβ1–42 peptide film (predominantly monomers); conditions: 10 µg/ml compound; for binding value, binding Aβ1–42 monomers: optical density after pNPP incubation
# T1 construct: Aβ1–42 peptide film was prepared from lyophilized powder (Bachem); purchased Bachem
# Method: (§1) Aβ1–42 peptide film was prepared from lyophilized powder (Bachem). The powder was reconstituted in HFIP to a final concentration of 1 mM, sonicated for 15 min at room temperature (RT), agitated overnight (ON), and aliquoted into non-siliconized microcentrifuge tubes (12 µl corresponding to 55 µg). The HFIP was evaporated under a stream of argon. The resulting peptide film was vacuum dried for 10 min and stored at -80°C. For direct use as peptide film, an aliquot of Aβ1–42 peptide film was reconstituted with 0.54% dimethylsulphoxide (DMSO) in phosphate buffered saline (PBS) to obtain a final concentration of 10 µg/ml and then used for the ELISA as described below. To prepare fibrils, 55 µg aliquot of peptide film was dissolved in 55 µl of 50 mM Tris-HCl, pH 7.4 and incubated at 37°C for five days. Next, the sample was centrifuged (10’000 rpm for 5 min) and the pellet was diluted in 50 mM Tris-HCl, pH 7.4.
# (§2) Aβ1–42 peptide preparations were diluted in 0.05 M bicarbonate-carbonate buffer pH 9.6, to the final concentration of 10 µg/ml and coated onto ELISA plates (MaxiSorp, Nunc). After blocking (PBS; 0.05% Tween; 1% BSA), plates were incubated with 2- or 3-fold dilutions of D-compounds (starting concentration: 10 µg/ml) and incubated for 2 h at 37°C. Plates were then washed and incubated for 2 h at 37°C with the detection antibody Rabbit-a-fluorescein isothiocyanate-AP (Sigma; 1∶10’000 dilution) followed by the incubation for 2.5 h at room temperature (RT) with 1 mg/ml of phosphatase substrate (pNPP, Sigma). The absorbance signal was read at 405 nm wavelength using a Tecan plate reader (Tecan Group Lt, Männedorf, Switzerland).
# (§3) ELISA plates (MaxiSorp, Nunc) were coated with anti-Aβ antibody 6E10 (Covance) at a concentration of 5 µg/ml. Either monomeric Aβ1–42 peptide film (mainly monomeric) or Aβ1–42 fibrils, which were prepared as described above, were diluted in PBS to the final concentration 10 µg/ml and mixed with 10-fold dilutions of D-peptide compounds in Eppendorf tubes (starting concentration of D-peptide compounds: 10 µg/ml). The tubes were incubated for 2 h at 37°C. Next, samples were distributed onto the ELISA plate and kept for 2 h at 37°C. Plates were washed and incubated for 2 h at 37°C with the detection antibody Rabbit-a-fluorescein isothiocyanate-AP (Sigma; 1∶10′000 dilution) following the incubation overnight (ON) at RT with 1 mg/ml of phosphatase substrate (pNPP, Sigma). The absorbance signal was read at 405 nm wavelength using the Tecan plate reader (Tecan Group Ltd, Männedorf, Switzerland).
# (§4) To verify the SPR results, ELISA was employed to assay the interaction of the ACI-80 derivatives ACI-80-Kϕ, ACI-81-Kϕ, ACI-82-Kϕ, ACI-83-Kϕ, ACI-84-Kϕ, ACI-85-Kϕ, ACI-86-Kϕ, ACI-87-Kϕ, [^19F]-ACI-87-Kϕ, ACI-88-Kϕ, [^19F]-ACI-88-Kϕ, ACI-89-Kϕ, [^19F]-ACI-89-Kϕ) with Aβ1–42 fibrils and Aβ peptide film in solution containing mostly monomers and smaller oligomers (Table 4). To avoid any bias by possible conformational influences the ELISA has been carried out in two versions, once with immobilized antibody and once with immobilized Aβ1–42 as described in the methods section. Both assays yielded similar results and confirmed each other. […] Panels A and B in Figure 2 show the results for binding to Aβ1–42 fibrils and panels C and D in Figure 2 show the results for binding to freshly prepared Aβ1–42 peptide film, which contains mostly monomeric Aβ. In Table 4, the performance of the peptides is expressed relative to that of ACI-80-Kϕ.
# [3] = molecular target: T2, Aβ1–42 fibrils (Homo sapiens, UniProt P05067); experiment: ELISA, compound binding to Aβ1–42 fibrils; conditions: for binding value, binding Aβ1–42 fibrils: optical density after pNPP incubation
# T2 construct: Aβ1–42 was dissolved in hexafluoroisopropanol (HFIP)
# Method: as §1, §2, §3, §4
# [4] = molecular target: T2, Aβ1–42 fibrils; experiment: SPR single cycle experiments (Biacore T100), heterogeneous ligand model; type: binding; design: Rmax1 / Rmax2 / k off2: unit not given here; conditions: PBS pH 7.4, 25°C, 30 µl/min
# Method: Aβ1–42 fibrils were prepared as described above. Thereafter, the sample was centrifuged for 10 min at 16000×g, the supernatant discarded and this procedure repeated for 3 times. Formation of fibrils was confirmed by a standard Thioflavin-T fluorescence assay. Aβ1–42 fibrils were covalently immobilized on a CM5 sensor chip via amine coupling. Prior to immobilization of Aβ1–42 fibrils the sample was centrifuged and fibrils resuspended in 10 mM sodium acetate buffer pH 4.0. Flow cell sensor surfaces were activated with a freshly prepared solution of 0.2 M 1-ethyl–3-(3-dimethylaminopropyl)-carbodiimide (EDC) and 0.05 M N-hydroxysuccinimide (NHS) at a constant flow rate of 10 µl/min for 420 s. Aβ1–42 fibrils (∼ 110 µM monomeric Aβ1–42) were injected for 600 s with a flow rate of 10 µl/min. Deactivation of the surface was performed by injection of 1 M ethanolamine-HCl pH 8.5 at the same flow rate and duration as in the activation step. In the reference cells the deactivation step was performed directly after the activation step. All SPR experiments were performed on a Biacore T100 system with series S CM5 sensor chips at 25°C. The system was run with the Biacore T100 Control Software Version 1.1.1. PBS (10 mM sodium phosphate buffer pH 7.4, 137 mM NaCl, 2.7 mM KCl) was chosen as running buffer (as previously during fibril formation) in order to minimize alterations of fibril organization. All buffers were sterile filtered (0.22 µm). After each docking of a sensor chip the detector was normalized with BIAnormalizing solution (70% glycerol, GE Healthcare) to compensate for slight differences in detector responses of individual sensor chips. For all interaction analyses the Type 1 reagent rack was used. Siliconized sample vials were used with their corresponding rubber caps (Type 2, GE Healthcare) to minimize evaporation effects. Throughout all runs the flow rate was set to 30 µl/min. All interaction studies were performed in single-cycle mode. Here, five different concentrations of analyte were passed through a reference cell and subsequently through flow cells with immobilized ligand within the same binding cycle for 60 seconds, starting with the lowest concentration. Successive injections were performed in the order of increasing concentrations. Each following concentration was a fivefold increase of the previous. The lowest analyte concentration was chosen to be 100 nM and therefore the following were 500, 2500, 12500 and 62500 nM. Biacore data were evaluated using BiaEvaluation 4.1.1 (GE Healthcare) and Biacore T100 Evaluation Software (GE Healthcare). Obtained binding data with compounds were double referenced. This was achieved by collecting the data in dual-channel mode with a reference flow cell connected upstream of the flow cell with immobilized Aβ1–42 fibrils and the subtraction of the obtained binding responses with a blank buffer injection (PBS).
# [5] = molecular target: T3, Aβ plaques in brain sections of transgenic APP (V717I) x PS1 (A246E) mice (Homo sapiens, UniProt P05067); experiment: Ex vivo staining of mouse brain slices by FITC labeled compounds
# T3 construct: triple image overlay of respective stains reveal that the ϕ-compounds identify plaques; from tissue; host or cells: brain cryosections of APP (V717I) x PS1 (A246E) transgenic mice
# Method: In vitro tissue section staining was performed according to previously described protocols with slight modifications. Mouse brains were obtained from male transgenic (tg) APP (London mutation V717l) x PS1 (A246E) mice aged 13–21 months and from female wild type (wt) mice aged 9–10 months. The mice were anesthetized and transcardially perfused with saline. The brains were removed and snap frozen. 10 µm thick sagittal cryostat sections through the whole mouse brain were produced and mounted onto glass slides. ϕ-labeled compounds were applied to investigate binding. Thus, the slides were thawed, washed in PBS and fixed in 4% paraformaldehyde (20 min at RT) just before incubation with ϕ-labeled compounds. One series of sections was treated only with fluorescent compounds (0.01 mg/ml, incubation time 2 h) while another series of sections were incubated with anti-Aβ antibody 6E10 at 1∶500 dilution (SIG-39320, Covance; final antibody concentration was 2 µg/ml) in addition to ϕ-labeled compounds (0.01 mg/ml). The slices were washed in PBS. The sections incubated with ϕ-labeled compound and 6E10 antibody were further incubated for 2 h at RT with Goat-anti-Mouse IgG1– AlexaFluor 555 (A21127, Invitrogen, 1∶1000 dilution) and washed with PBS. Finally, all sections were counterstained with 4’–6-Diamidino-2-phenylindole (DAPI, 32670, Sigma, incubation 5 min at RT) for the visualization of cell nuclei. The slides were mounted using Prolong Gold Antifade mounting medium (P36930, Invitrogen) and coverslipped.
# The tissues were analyzed using a fluorescent Zeiss Axioscope 2 Plus microscope using the AxioVision 4 image analysis software.
# A further series of slices was stained using a primary anti-fluorescein isothiocyanate antibody combined with alkaline phosphatase reaction for visualization of ϕ-labeled peptides. Briefly, the sections were treated with blocking solution (10% normal goat serum (NGS), 0.25% Triton X-100 in PBS for 1 h at RT) and incubated with primary antibody (rabbit-anti-FITC; Invitrogen) at a dilution of 1∶500. The sections were then washed and incubated for 2 h at RT with the secondary antibody goat-anti-rabbit-alkaline phosphatase (Sigma) at a dilution of 1∶100. After washing, the slides were incubated with BCIP/NBT substrate (Sigma) for 3 min, washed, dehydrated and mounted using Eukitt mounting medium.
# [6] = average of two or three experiments
# [7] = 10 µg/ml compound, average of two or three experiments
Compound,Identified amino acid at the N-terminal position: glutamine ([1]; relative content of N-terminal Gln peptide),Identified amino acid at the N-terminal position: pyroglutamate ([1]; relative content of N-terminal Pyr peptide),"binding value, binding Aβ1–42 monomers [2, 6]","binding value, binding Aβ1–42 fibrils [3, 7]",Rmax2 [4],k off1 [4],k off2 [4],k on1 [4],k on2 [4],Rmax1 ([4]; global fit of three lowest responding concentrations),"binding value, binding Aβ1–42 monomers ([2]; value of one single experiment only)",ELISA binding to Aβ1–42 [3],"binding value, binding Aβ1–42 fibrils ([3]; 10 µg/ml compound, value of one single experiment only)","staining / recognition of Aβ plaques ([5]; 0.01 mg/ml ϕ-labeled compound, 2 h, 10 µm cryostat sections, fluorescence microscopy)","overlay with 6E10 anti-Aβ staining ([5]; co-staining with 6E10 (2 µg/ml) and DAPI, triple overlay)",staining pattern ([5]; fluorescence microscopy),"% binding relative to ACI-80-Kϕ, Aβ1–42 monomers ([2]; ACI-80-Kϕ = 100)","% binding relative to ACI-80-Kϕ, Aβ1–42 fibrils ([3]; 10 µg/ml compound, ACI-80-Kϕ = 100)"
CC[C@@H](C)[C@@H](NC(=O)[C@@H](Cc1c[nH]cn1)NC(=O)[C@@H](CCCNC(=N)N)NC(=O)[C@@H](Cc1ccc(O)cc1)NC(=O)[C@@H](Cc1c[nH]cn1)NC(=O)[C@@H](CO)NC(=O)[C@H](N)CCC(N)=O)C(=O)N[C@H](CO)C(=O)N1CCC[C@@H]1C(=O)N[C@H](C)C(=O)N[C@H](CCC(N)=O)C(=O)N[C@@H](C(=O)N[C@H](CCCCNC(=O)c1ccc2c(c1)C(=O)OC21c2ccc(O)cc2Oc2cc(O)ccc21)C(=O)O)C(C)C [ACI-80-Kϕ] (H-[dQ][dS][dH][dY][dR][dH][dI][dS][dP][dA][dQ][dV][dK](5FAM)-OH; C-terminus assumed),>94.4%,<5.6%,0.49,0.90,43.7,0.0252,1.58,469,1.37e4,12.2,,,,,,,,
"PSHYRHISPAQKK[^19F]ϕ [[^19F]-ACI-89-Kϕ, fluorinated ϕ-labeled ACI-89]",,,,,,,,,,,*1.19,bound well to Aβ1–42 fibrils,*1.86,readily recognized amyloid plaques,good overlap with 6E10 Aβ staining,more diffuse and comparable to the staining of 6E10 Aβ antibody,,
"ZSFYRHISPAQVKϕ [ACI-84-Kϕ, ϕ-labeled ACI-80 derivative, Q1Z and H3F]",,,0.31,0.58,,,,,,,,reduced,,,,,63%,64%
